Source: PubChem BioAssay (NCI)
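Values below derive from 48-hour exposures of cells grown in 96-well plates, with endpoints linearly interpolated between the two concentrations bracketing the appropriate inhibition level. Abbreviation: GI50, concentration required for 50% inhibition of growth. TGI marks complete inhibition of growth.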

Tests used:
Assay in all cases: NCI-60 cell line screen, 48 h
[1] = tested on: UO-31 renal
[2] = tested on: OVCAR-4 ovarian
[3] = tested on: SW-620 colon
[4] = tested on: MALME-3M melanoma
[5] = tested on: MDA-MB-435
[6] = tested on: RPMI-8226 leukemia
[7] = tested on: SK-MEL-2 melanoma
[8] = tested on: NCI-H23 lung
[9] = tested on: SNB-75 CNS
[10] = tested on: OVCAR-5 ovarian

For `COc1ccc(/C=C2\C=C(c3ccccc3)N(CCc3ccccc3)C2=O)cc1OC`, the GI50 [1] was 4.35 µM, the TGI [1] was 20.6 µM and the GI50 [2] was 3.15 µM. For the same compound, the TGI [2] was 87 µM, the GI50 [3] was 13.6 µM and the TGI [3] was over 100 µM. The GI50 [4] was 10.2 µM, the TGI [4] was 61.9 µM and the GI50 [5] was 4.78 µM. It also gave a TGI [5] of over 100 µM, a GI50 [6] of 18.4 µM and a TGI [6] of 84.9 µM. The GI50 [7] was 18.5 µM, the TGI [7] was over 100 µM and the GI50 [8] was 17 µM. For the same compound, the TGI [8] was over 100 µM, the GI50 [9] was 1.89 µM and the TGI [9] was 6.28 µM. The GI50 [10] was 6.37 µM and the TGI [10] was 73.1 µM.
`Cc1cc(N(CCCl)CCCl)ccc1C=Nc1ccc2ccccc2c1` was tested, and the GI50 [1] was 8.71 µM, the TGI [1] was over 100 µM and the GI50 [2] was 15.5 µM. The TGI [2] was over 100 µM, the GI50 [3] was 41.9 µM and the TGI [3] was over 100 µM. The GI50 [4] was 50.3 µM, the TGI [4] was over 100 µM and the GI50 [5] was 53.3 µM. The TGI [5] was over 100 µM, the GI50 [6] was 29.3 µM and the TGI [6] was over 100 µM. The GI50 [7] was 40 µM, the TGI [7] was 98 µM and the GI50 [8] was 6.12 µM. The TGI [8] was over 100 µM, the GI50 [9] was 2.52 µM and the TGI [9] was over 89.7 µM. It also gave a GI50 [10] of 2.52 µM and a TGI [10] of over 100 µM.
Compound `Clc1ccc(-c2cc(-c3ccccc3)nc(NCCNc3ccnc4cc(Cl)ccc34)n2)cc1` has a GI50 [1] of 1.38 µM, a TGI [1] of 2.86 µM and a GI50 [2] of 1.79 µM. The TGI [2] was 3.83 µM, the GI50 [3] was 1.7 µM and the TGI [3] was 3.48 µM. For the same compound, the GI50 [4] was 1.71 µM, the TGI [4] was 3.3 µM and the GI50 [5] was 1.77 µM. For the same compound, the TGI [5] was 3.27 µM, the GI50 [6] was 2.03 µM and the TGI [6] was 4.54 µM. For the same compound, the GI50 [7] was 1.73 µM, the TGI [7] was 3.23 µM and the GI50 [8] was 1.76 µM. It also gave a TGI [8] of 3.6 µM, a GI50 [9] of 1.58 µM and a TGI [9] of 3.08 µM. For the same compound, the GI50 [10] was 1.67 µM and the TGI [10] was 3.06 µM.
With `O=C1c2cc([N+](=O)[O-])ccc2-c2ccc3c4ccc5c6c(ccc(c7ccc1c2c73)c64)C(=O)c1cc([N+](=O)[O-])ccc1-5` the TGI [1] was over 100 µM, the TGI [2] was over 100 µM and the TGI [3] was over 100 µM. It also gave a TGI [4] of over 100 µM, a TGI [5] of over 100 µM and a TGI [6] of over 100 µM. It also gave a TGI [7] of over 100 µM, a TGI [8] of over 100 µM and a TGI [9] of over 100 µM. It also gave a TGI [10] of over 100 µM.
In the case of `COc1cc(C(=O)Nc2cc(OC)c3ccn(C)c3c2)cc2c1C[C@]1(C)CC[C@@H](O)C(C)(C)[C@H]1O2`, the GI50 [1] was 0.0988 µM, the TGI [1] was 1.17 µM and the GI50 [2] was 4.14 µM. The TGI [2] was over 100 µM, the GI50 [3] was 1.04 µM and the TGI [3] was 10 µM. The GI50 [4] was 2.74 µM, the TGI [4] was over 100 µM and the GI50 [5] was 1.01 µM. The TGI [5] was 3.38 µM, the GI50 [6] was 0.0392 µM and the TGI [6] was 1.16 µM. It also gave a GI50 [7] of 0.323 µM, a TGI [7] of 4.48 µM and a GI50 [8] of 2.32 µM. For the same compound, the TGI [8] was 18.4 µM, the GI50 [9] was 0.0521 µM and the TGI [9] was 2.19 µM. For the same compound, the GI50 [10] was 4.14 µM and the TGI [10] was over 100 µM.
In the case of `Clc1ccc(OCc2nnc3n2N=C(c2ccc(Cl)cc2Cl)CS3)cc1`, the GI50 [1] was 14.8 µM, the TGI [1] was 34.5 µM and the GI50 [2] was 23.7 µM. It also gave a TGI [2] of 79 µM, a GI50 [3] of 31.6 µM and a TGI [3] of over 100 µM. The GI50 [4] was 19.8 µM, the TGI [4] was 58.6 µM and the GI50 [5] was 22.4 µM. It also gave a TGI [5] of 59.8 µM, a GI50 [6] of 21.1 µM and a TGI [6] of 68.5 µM. The GI50 [7] was 22.1 µM, the TGI [7] was 45.8 µM and the GI50 [8] was 17.1 µM. For the same compound, the TGI [8] was 37.9 µM, the GI50 [9] was 16.3 µM and the TGI [9] was 43.2 µM. It also gave a GI50 [10] of 22.1 µM and a TGI [10] of 81 µM.
`Cn1cc(C2=C(c3cn(C)c4ccccc34)C(=O)NC2=O)c2ccccc21` was tested, and the GI50 [1] was 2.49 µM, the TGI [1] was over 25 µM and the GI50 [2] was 5.01 µM. It also gave a TGI [2] of over 25 µM, a GI50 [3] of 0.88 µM and a TGI [3] of over 25 µM. It also gave a GI50 [4] of 4.42 µM, a TGI [4] of over 25 µM and a GI50 [5] of 0.095 µM. The TGI [5] was over 6.61 µM, the GI50 [6] was over 8.42 µM and the TGI [6] was over 25 µM. For the same compound, the GI50 [7] was 0.894 µM, the TGI [7] was over 14 µM and the GI50 [8] was 2.3 µM. For the same compound, the TGI [8] was over 25 µM, the GI50 [9] was 0.306 µM and the TGI [9] was 1.64 µM. For the same compound, the GI50 [10] was over 25 µM and the TGI [10] was over 25 µM.
For `O=C(Nc1ccc(/C=C/c2ccc(NC(=O)c3cc(S(=O)(=O)O)c4cccnc4c3O)cc2S(=O)(=O)O)c(S(=O)(=O)O)c1)c1cc(S(=O)(=O)O)c2cccnc2c1O`, the GI50 [1] was 24.5 µM, the TGI [1] was over 69 µM and the GI50 [2] was over 54.4 µM. The TGI [2] was over 75.2 µM, the GI50 [3] was 17.8 µM and the TGI [3] was over 83.8 µM. The GI50 [4] was 34.4 µM, the TGI [4] was over 62.6 µM and the GI50 [5] was over 56.7 µM. For the same compound, the TGI [5] was over 74.1 µM, the GI50 [6] was 27 µM and the TGI [6] was over 65.2 µM. It also gave a GI50 [7] of over 53.8 µM, a TGI [7] of over 69.7 µM and a GI50 [8] of 6.65 µM. For the same compound, the TGI [8] was over 42 µM, the GI50 [9] was 8.18 µM and the TGI [9] was 48.7 µM. It also gave a GI50 [10] of over 20.2 µM and a TGI [10] of over 56.9 µM.
`COc1cc2c(cc1Nc1nc(Nc3cccc(F)c3C(N)=O)c3cc[nH]c3n1)N(C(=O)CN1CCN(C(C)C)CC1)CC2` showed a GI50 [1] of 3.92 µM, a TGI [1] of 9.74 µM and a GI50 [2] of 3.88 µM. The TGI [2] was 7.94 µM, the GI50 [3] was 2.81 µM and the TGI [3] was 5.96 µM. The GI50 [4] was 3.17 µM, the TGI [4] was 7.06 µM and the GI50 [5] was 3.12 µM. The TGI [5] was 6.98 µM, the GI50 [6] was 4.58 µM and the TGI [6] was 10.9 µM. For the same compound, the GI50 [7] was 3.3 µM, the TGI [7] was 6.95 µM and the GI50 [8] was 3.36 µM. It also gave a TGI [8] of 7.05 µM, a GI50 [9] of 3 µM and a TGI [9] of 6.18 µM. The GI50 [10] was 2.82 µM and the TGI [10] was 7.35 µM.
